Results taken from patent US6506766B1 (Abbott Laboratories, priority 1998, dated 2003).
Where two headings read alike, the source gives them in different places.

Legend:
[1] = target: T1, human glucocorticoid receptor-α [GRX] isoform (Homo sapiens, UniProt P04150); assay: Radioligand binding with human glucocorticoid receptor cytosol ([3H]-dexamethasone competition)
T1 construct: host or cells: insect SF21 cells (baculovirus)
T1 sequence (P04150 1-777): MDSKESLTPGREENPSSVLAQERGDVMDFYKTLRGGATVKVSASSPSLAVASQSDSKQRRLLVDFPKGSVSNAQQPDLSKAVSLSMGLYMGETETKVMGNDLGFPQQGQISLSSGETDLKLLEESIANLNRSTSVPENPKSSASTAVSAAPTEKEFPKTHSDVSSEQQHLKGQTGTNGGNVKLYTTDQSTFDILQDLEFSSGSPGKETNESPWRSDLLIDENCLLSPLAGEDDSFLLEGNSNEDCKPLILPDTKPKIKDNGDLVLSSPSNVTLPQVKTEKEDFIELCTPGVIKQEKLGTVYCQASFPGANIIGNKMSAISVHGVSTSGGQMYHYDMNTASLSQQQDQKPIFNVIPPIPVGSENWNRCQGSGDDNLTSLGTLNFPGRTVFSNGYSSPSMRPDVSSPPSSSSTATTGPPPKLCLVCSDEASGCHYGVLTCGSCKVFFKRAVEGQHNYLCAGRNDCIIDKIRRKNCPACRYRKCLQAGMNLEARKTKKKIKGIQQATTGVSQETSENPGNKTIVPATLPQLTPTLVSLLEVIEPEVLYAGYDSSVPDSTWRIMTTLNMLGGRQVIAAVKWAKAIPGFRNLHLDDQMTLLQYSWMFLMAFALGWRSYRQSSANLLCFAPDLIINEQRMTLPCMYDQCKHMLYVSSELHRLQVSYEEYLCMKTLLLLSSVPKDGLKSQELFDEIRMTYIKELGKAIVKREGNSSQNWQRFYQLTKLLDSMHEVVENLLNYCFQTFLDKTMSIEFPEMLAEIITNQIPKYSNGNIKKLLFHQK

[2] = target: T2, human progesterone receptor-A [PRA] isoform (Homo sapiens, UniProt P06401); assay: Radioligand binding with human progesterone receptor cytosol ([3H]-progesterone competition); conditions: read-out: Ki (nM) PR
T2 construct: host or cells: insect SF21 cells (baculovirus)
T2 sequence (P06401 1-769 isoform P06401-2): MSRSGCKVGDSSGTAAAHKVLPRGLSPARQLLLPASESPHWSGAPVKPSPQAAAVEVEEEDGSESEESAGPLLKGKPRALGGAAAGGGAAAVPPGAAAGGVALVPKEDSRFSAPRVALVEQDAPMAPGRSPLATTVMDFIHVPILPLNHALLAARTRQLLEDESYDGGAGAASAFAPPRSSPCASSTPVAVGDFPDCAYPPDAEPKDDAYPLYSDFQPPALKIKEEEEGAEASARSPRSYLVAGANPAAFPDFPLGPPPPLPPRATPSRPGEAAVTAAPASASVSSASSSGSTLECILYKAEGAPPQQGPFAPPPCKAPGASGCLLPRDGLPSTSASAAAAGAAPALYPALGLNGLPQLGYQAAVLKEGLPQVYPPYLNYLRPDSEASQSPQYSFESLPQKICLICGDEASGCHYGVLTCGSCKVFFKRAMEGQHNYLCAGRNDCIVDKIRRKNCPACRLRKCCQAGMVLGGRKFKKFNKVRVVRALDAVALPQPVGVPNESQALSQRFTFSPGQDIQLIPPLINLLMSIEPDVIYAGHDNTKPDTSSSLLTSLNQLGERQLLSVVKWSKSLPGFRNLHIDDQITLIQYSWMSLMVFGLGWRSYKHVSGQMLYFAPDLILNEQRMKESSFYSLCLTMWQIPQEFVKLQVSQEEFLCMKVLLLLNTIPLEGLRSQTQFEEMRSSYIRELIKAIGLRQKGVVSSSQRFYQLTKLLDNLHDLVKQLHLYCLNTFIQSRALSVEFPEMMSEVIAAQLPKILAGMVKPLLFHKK

[3] = GRX cytosol expressed in insect SF21 cells, [3H]-Dex ~0.9 nM, 4° C. overnight, Ki by Cheng-Prusoff, KL ~[…], read-out: Ki (nM) GR
[4] = PRA cytosol expressed in insect SF21 cells, [3H]Prog ~0.8 nM, 4° C. overnight, Ki by Cheng-Prusoff, KL ~4.5 nM

Compound	Ki [1, 3] [nM]	Ki [2, 4] [nM]	Ki ([1]; Ki (nM) GR) [nM]	Ki ([1]; read-out: Ki (nM) GR) [nM]	Ki [2] [nM]
COc1c(O)ccc2c1-c1ccc3c(c1C(c1cccc(OCSC)c1)O2)C(C)=CC(C)(C)N3 (stereo not drawn) [Example 400, 2,5-Dihydro-9-hydroxy-10-methoxy-2,2,4-trimethyl-5-(3-(methylthiomethoxy)phenyl)-1H-[1]benzopyrano[3,4-f]quinoline]	3.5	5960			
CC1=CC(C)(C)Nc2ccc3c(c21)C(c1cc(Cl)cc(Cl)c1)Oc1ccc(O)c(Cl)c1-3 (stereo not drawn) [Example 223, 10-Chloro-9-hydroxy-5-(3,5-dichlorophenyl)-2,2,4-trimethyl-1H-2,5-dihydro-[1]benzopyrano[3,4-f]quinoline]	2.6	297			
CNc1cccc2c1-c1ccc3c(c1C(c1cc(Cl)cc(Cl)c1)O2)C(C)=CC(C)(C)N3 (stereo not drawn) [Example 73, 5-(3,5-Dichlorophenyl)-2,5-dihydro-2,2,4,N-tetramethyl-1H[1]benzopyrano[3,4-f]quinolin-10-amine]	10.3	4500			
C=CCC1Oc2ccc(OC(=O)CCC(C)=O)c(OC)c2-c2ccc3c(c21)C(C)=CC(C)(C)N3 (racemic) [Example 434, (+/−)2,5-Dihydro-9-(4-oxo-pentanoyloxy)-10-methoxy-2,2,4-trimethyl-5-allyl-1H-[1]benzopyrano[3,4-f]quinoline]	0.96	123			
COC(=O)CC1Oc2cccc(OC)c2-c2ccc3c(c21)C(C)=CC(C)(C)N3 (stereo not drawn) [Example 46, Methyl 2,5-Dihydro-10-methoxy-2,2,4-trimethyl-1H-[1]benzopyrano[3,4-f]quinoline-5-acetate]	2.7	3440			
COc1cccc2c1-c1ccc3c(c1C(CC(=O)N(C)OC)O2)C(C)=CC(C)(C)N3 (stereo not drawn) [Example 185, Methyl 2-(2,5-Dihydro-10-methoxy-2,2,4-trimethyl-1H-[1]benzopyrano[3,4-f]quinolin-5-yl)acetyl Hydroxamate]	288	≥ 10000			
COc1cccc2c1-c1ccc3c(c1C(c1cc(C)cc(C)c1)O2)C(C)=CC(C)(C)N3 (stereo not drawn) [Example 27, 5-(3,5-Dimethylphenyl)-2,5-dihydro-10-methoxy-2,2,4-trimethyl-1H-[1]benzopyrano[3,4-f]quinoline]		3580	5.2		
COc1cccc2c1-c1ccc3c(c1C(C/C=C/COC(=O)N(C)C)O2)C(C)=CC(C)(C)N3 (stereo not drawn) [Example 196, (E) 2,5-Dihydro-10-methoxy-5-(4-(N,N-dimethylaminocarbonyloxy)-2-buten-1-yl)-2,2,4-trimethyl-1H-[1]benzopyrano[3,4-f]quinoline]	1.1	≥ 10000			
COc1cccc2c1-c1ccc3c(c1C(CC(=O)N(C)C)O2)C(C)=CC(C)(C)N3 (stereo not drawn) [Example 63, 2,5-Dihydro-10-methoxy-2,2,4,N,N-pentamethyl-1H-[1]benzopyrano[3,4-f]quinoline-5-acetamide]	511	≥ 10000			
COc1c(O)ccc2c1-c1ccc3c(c1C(c1ccccc1)O2)C(C)=CC(C)(C)N3 (stereo not drawn) [Example 248, 2,5-Dihydro-9-hydroxy-10-methoxy-2,2,4-trimethyl-5-phenyl-1H-[1]benzopyrano[3,4-f]quinoline]	1	870			
CC1=CC(C)(C)Nc2ccc3c(c21)[C@@H]([C@H]1C=CCC1)Oc1ccc(O)c(Cl)c1-3 [Example 225]	155	5010			
COc1c(O)ccc2c1-c1ccc3c(c1C(c1cc(C(F)(F)F)cc(C(F)(F)F)c1)O2)C(C)=CC(C)(C)N3 (stereo not drawn) [Example 257, 2,5-Dihydro-9-hydroxy-10-methoxy-2,2,4-trimethyl-5-(3-5-bistrifluoromethylphenyl)-1H-[1]benzopyrano[3,4-f]quinoline]	10	1620			
C=CCNC(=O)Oc1ccc2c(c1OC)-c1ccc3c(c1C(CC=C)O2)C(C)=CC(C)(C)N3 (stereo not drawn) [Example 442, 10-Methoxy-9-(allylaminocarbonyl)oxy-5-(3-propenyl)-2,2,4-trimethyl-1H-2,5-dihydro-[1]benzopyrano[3,4-f]quinoline]				9.1	8860
COc1c(O)ccc2c1-c1ccc3c(c1[C@H]([C@H]1C=CCC1)O2)C(C)=CC(C)(C)N3 [Example 253, (−)(5S,3′R)2,5-Dihydro-9-hydroxy-10-methoxy-2,2,4-trimethyl-5-(3-cyclopentenyl)-1H-[1]benzopyrano[3,4-f]quinoline]	0.38	42			
COc1c(O)ccc2c1-c1ccc3c(c1C(c1cc(Cl)cc(Cl)c1)O2)C(C)=CC(C)(C)N3 (stereo not drawn) [Example 416, 2,5-Dihydro-9-hydroxy-10-methoxy-2,2,4-trimethyl-5-(3,5-dichlorophenyl)-1H-[1]benzopyrano[3,4-f]quinoline]	3.1	394			
COc1cccc2c1-c1ccc3c(c1C(c1ccc(O)cc1)O2)C(C)=CC(C)(C)N3 (stereo not drawn) [Example 95, 4-(2,5-Dihydro-10-methoxy-2,2,4-trimethyl-1H-[1]benzopyrano[3,4-f]quinolin-5-yl)phenol]	31	≥ 10000			
COc1cccc2c1-c1ccc3c(c1C(c1cc(F)c(F)c(F)c1)O2)C(C)=CC(C)(C)N3 (stereo not drawn) [Example 211]	5.3	≥ 10000			
C=CCC1Oc2cccc(COC)c2-c2ccc3c(c21)C(C)=CC(C)(C)N3 (stereo not drawn) [Example 332, 2,5-Dihydro-10-methoxymethyl-5-(3-propenyl)-2,2,4-trimethyl-1H-[1]benzopyrano[3,4-f]quinoline]	18	≥ 10000			
C=CCC1Oc2ccc(OC(=O)CNC(N)=O)c(OC)c2-c2ccc3c(c21)C(C)=CC(C)(C)N3 (racemic) [Example 432, (+/−)2,5-Dihydro-9-(N-carbamoyl-2-aminoacetoxy)-10-methoxy-2,2,4-trimethyl-5-allyl-1H-[1]benzopyrano[3,4-f]quinoline]	1.4	207			
COc1cccc2c1-c1ccc3c(c1C([C@H]1C=C(CN4CCOCC4)CCC1)O2)C(C)=CC(C)(C)N3 (stereo in doubt) [Example 167, rel (5R, 3′R) 2,5-Dihydro-10-methoxy-5-(1-(N-morpholino)methyl-3-cyclohexenyl)-2,2,4-trimethyl-1H-[1]benzopyrano[3,4-f]quinoline]	21	≥ 10000			
C=CCC1Oc2c(C=C)ccc(OC)c2-c2ccc3c(c21)C(C)=CC(C)(C)N3 (stereo not drawn) [Example 304, 10-Methoxy-7-(2-ethenyl)-5-(3-propenyl)-2,2,4-trimethyl-1H-2,5-dihydro-[1]benzopyrano[3,4-f]quinoline]	34.5	681			
COc1cccc2c1-c1ccc3c(c1C(CC1CO1)O2)C(C)=CC(C)(C)N3 (stereo not drawn) [Example 175, 2,5-Dihydro-10-methoxy-5-(1,2-epoxy-3-propenyl)-2,2,4-trimethyl-1H-[1]benzopyrano[3,4-f]quinoline]	44	7700			
COCc1cccc2c1-c1ccc3c(c1C(c1ccccc1)O2)C(C)=CC(C)(C)N3 (stereo not drawn) [Example 338, 2,5-Dihydro-10-(methoxymethyl)-5-phenyl-2,2,4-trimethyl-1H-[1]benzopyrano[3,4-f]quinoline]	61	≥ 10000			
COc1c(Br)cc(Br)c2c1-c1ccc3c(c1C(C1C=CCCC1)O2)C(C)=CC(C)(C)N3 (stereo not drawn) [Example 302, 7,9-Dibromo-5-[cyclohexen-3-yl]-10-methoxy-2,2,4-trimethyl-2,5-dihydro-1H-[1]benzopyrano[3,4-f]quinoline]	5.9	99			
